# Earlier results, collected in patent US20080085858A1, “Pharmaceutical Composition” (KYOWA HAKKO KOGYO CO., LTD., priority 2004, published 2008).
# Assays:
# [1] = system: delayed-type allergic reaction in the skin; settings: animal model; Non-patent Document 1
# [2] = system: chronic dermatitis models; settings: Non-patent Document 2
smiles,measurement,setting,value
COc1ccc([C@]2(C#N)CC[C@@H](C(=O)O)CC2)cc1OC1CCCC1 [SB207499],Effect on delayed-type allergic reaction in the skin,[1],inhibit a delayed-type allergic reaction in the skin
same,Therapeutic effects on chronic dermatitis models,[2],exhibit therapeutic effects on chronic dermatitis models
